According to patent publication US20230054887A1, “SWEETENING AND TASTE-MASKING COMPOSITIONS, PRODUCTS AND USES THEREOF” (HEALTHTECH BIO ACTIVES, S.L.U., priority 2017, published 2023):

How the values were obtained:
Type in all cases: in vivo
[1] = Taste profile by calibrated taste panel at concentrations equisweet to 3% sucrose; conditions: 0- to 5-point scale
Method: The overall taste profile achieved with the sweetening composition of the present invention was evaluated and compared with the target taste profile of sucrose.
For this assay, all samples were evaluated at the same sweetness level, so each sample was used at a concentration which was equisweet to 3% sucrose. For each sample, the following parameters were evaluated: • Time to first sweetness detection • Time to maximum sweetness • Lingering (time for the sweetness to disappear) • Off-flavour: menthol, liquorice (any tastes that are different from sweetness) • Mouthfeel (density, i.e., the perceived viscosity in the mouth)
These evaluations were carried out by a calibrated taste panel, and conducted at room temperature.
Each of those parameters was evaluated on a 0- to 5-point scale. The values for sucrose were the reference, and were considered the target to emulate.

[2] = Sweetening synergy sensory test: concentration equisweet to sucrose reference solutions in water, expert panel; conditions: for Relative sweetening power: ratio sucrose concentration / equisweet concentration; for Equisweet concentration: room temperature
Method: A sensory test was performed to assess the sweetening synergism achieved with the composition of the invention (Examples A and B), and this effect was also compared to the effect obtained with analogous compositions containing beta-cyclodextrin (Comparative Examples A and B). Further compositions of the present invention (Examples C, D and E) were also assessed in this sensory test.
A group of expert panellists in sweet descriptors evaluated the sweetness of the different compositions as well as that of the ingredients NHDC, beta-cyclodextrin and gamma-cyclodextrin used alone.
Each evaluated sweetening agent was dissolved in water at different concentrations, at room temperature. The panel then determined, for each product, the concentration that was equisweet to the reference solutions of 1% and 3% sucrose in water. The results are summarized in Table 3 (Examples A and B are abbreviated as Ex. A and Ex. B, respectively, and the Comparative Examples A and B are abbreviated as Comp. A and Comp. B, respectively).
Since beta- and gamma-cyclodextrins are also sweet compounds, the equisweet concentrations of both cyclodextrins were also determined by the test panel to assess their possible contribution to the sweetness of the composition. […] Therefore, as the equisweet concentrations of both cyclodextrins are at least three orders of magnitude larger than those of NHDC, it was concluded that their contribution to the sweetness was negligible.
A more quantitative evaluation of the sweetness synergy provided by the compositions of the present invention was performed by comparing the real measured sweetness of the compositions comprising gamma-cyclodextrin and NHDC with the theoretical sweetness expected from the sum of the individual contribution of each component in the composition.
To this end, the relative sweetening power of each component was first calculated. For comparative purposes, the relative sweetening power of beta-cyclodextrin was also calculated. The relative sweetening power of a given compound, at a given sweetness level, indicates how many times sweeter this compound is than sucrose. It is therefore calculated as the ratio between the concentration of sucrose and the equisweet concentration of each ingredient, for each sweetness level.
From the relative sweetening power of each ingredient, it is possible to calculate the expected sweetness (sucrose equivalence) of a blend of those ingredients, according to Formula I:
Expected sweetness (sucrose equivalence) of a blend C1+C2=Concentration of compound C1×relative sweetening power of compound C1+Concentration of compound C2×relative sweetening power of compound C2
Then, the sweetness synergy of a blend of components can be calculated according to Formula II: […]
As disclosed above in Example 3, the relative sweetening power of a given compound, at a given sweetness level, indicates how many times sweeter than sucrose the compound is, and the value is calculated as the ratio between the concentration of sucrose and the equisweet concentration of the compound.

[3] = Masking bitterness of quinine, test panel, equibitter solution; conditions: 250 ppm quinine
Method: The bitter masking effect against quinine was assayed, following an analogous procedure to the one used in Example 10 for paracetamol.
The following substances were assayed: NHDC alone, beta-cyclodextrin alone, a composition comprising NHDC and beta-cyclodextrin in a molar ratio 1:1 (Example F) and a composition comprising NHDC and beta-cyclodextrin in a molar ratio 1:3 (Example G).
Analogously to Example 10, several aqueous solutions were prepared, each containing 250 ppm of quinine and different concentrations of the tested substance, namely, 5, 25, 50, 75 and 100 ppm. For each tested solution, a test panel determined the equibitter quinine solution, and the masking effect was calculated using a formula analogous to formula III (substituting 5000 with […]).
The masking synergies between beta-cyclodextrin and NHDC in Examples F and G were calculated following an analogous procedure to the one disclosed in Example 10. Therefore, using the molecular weight of each component, the amounts of beta-cyclodextrin and NHDC contained in each amount of the combinations of Examples F and G were calculated and, then, the antibittering contribution of each component was calculated on the basis of the data of Table 19. The expected masking effect was calculated as the sum of the contributions of each component, and, finally, the masking synergy was calculated (using Formula IV).

[4] = Masking bitterness of paracetamol, calibrated test panel, equibitter solution; conditions: 5000 ppm paracetamol
Method: The bitter masking effect against paracetamol was assayed. The anti-bittering effect was measured as a dose-response profile vs. a solution of paracetamol.
The following substances were assayed: NHDC alone, gamma-cyclodextrin alone and compositions comprising NHDC and gamma-cyclodextrin in a molar ratio 1:3 (Example B), 1.5:1 (Example C), 1:6 (Example D) and 1:10 (Example E).
For evaluating the masking effect of each substance, several aqueous solutions were prepared, each containing 5000 ppm of paracetamol and different concentrations of the tested substance, namely, 5, 25, 50, 75 and 100 ppm.
A calibrated test panel compared each solution with several solutions of paracetamol in water at different concentrations, and determined the equibitter paracetamol solution. The equibitter solution was calculated as the average of all the evaluations of the panel.
The masking effect was then calculated from the reference amount of paracetamol contained in each tested solution (5000 ppm) and the amount of paracetamol in the equibitter solution, using the following formula (Formula III): […]
For calculating the masking synergies between gamma-cyclodextrin and NHDC, first, for each amount of the combination (Examples A-E), using the molecular weight of each component, the amounts of gamma-cyclodextrin and NHDC contained therein were calculated. For example, 100 ppm of Example B contain 13.61 ppm of NHDC and 86.39 ppm of gamma-cyclodextrin. Then, the antibittering contribution of each component in the composition was calculated, on the basis of the data of Table 13. For example, 13.61 ppm of NHDC provide 9.44% masking effect and 86.39 ppm of gamma-cyclodextrin provide 5.46% masking effect (the antibittering effects for each specific concentration was calculated by interpolation of the data points in Table 13). Therefore, the expected masking effect is calculated as the sum of the contributions of each component. For example, the expected masking effect of 100 ppm of Example B is 14.90 (i.e., 9.44 plus 5.46).
Finally, the masking synergy is calculated using Formula IV: […]
The masking effect of Examples C (NHDC:gCD 1.5:1), D (NHDC:gCD 1:6) and E (NHDC:gCD 1:10) was also evaluated. Aqueous solutions were prepared, each one of them containing 5000 ppm of paracetamol and different concentrations of each one of the tested formulations Ex. C-E, namely, 25 and 50 ppm. Results are disclosed in Tables 15 to 17.

[5] = equisweet to 1% sucrose in water
[6] = equisweet to 3% sucrose in water

In the case of `OC[C@H]1O[C@@](CO)(O[C@H]2O[C@H](CO)[C@@H](O)[C@H](O)[C@H]2O)[C@@H](O)[C@@H]1O` [Sucrose, sucrose], the Lingering [1] is reported as 2.00, the “Mouthfeel (density)” value [1] is reported as 4.00 and the “Off-flavour: menthol, licorice” value [1] is reported as 0.00. For the same molecule, the “Time to first sweetness” value [1] was 1.00, the “Time to maximum sweetness” value [1] was 2.00 and the Total sweetness [1] was 5.00.

With `OC[C@H]1O[C@@H]2O[C@H]3[C@H](O)[C@@H](O)[C@@H](O[C@H]4[C@H](O)[C@@H](O)[C@@H](O[C@H]5[C@H](O)[C@@H](O)[C@@H](O[C@H]6[C@H](O)[C@@H](O)[C@@H](O[C@H]7[C@H](O)[C@@H](O)[C@@H](O[C@H]8[C@H](O)[C@@H](O)[C@@H](O[C@H]1[C@H](O)[C@H]2O)O[C@@H]8CO)O[C@@H]7CO)O[C@@H]6CO)O[C@@H]5CO)O[C@@H]4CO)O[C@@H]3CO` [bCD, Beta-Cyclodextrin] the Relative sweetening power ([2]; 1% sucrose level) was 0.8333, the Relative sweetening power ([2]; 3% sucrose level) was 0.4286 and the Equisweet concentration [2, 5] was 12000 ppm. The Equisweet concentration [2, 6] was 70000 ppm, the “Masking effect (real)” value ([3]; tested substance 5 ppm) was 0.00% and the “Masking effect (real)” value ([3]; tested substance 25 ppm) was 6.67%. The “Masking effect (real)” value ([3]; tested substance 50 ppm) was 11.67%, the “Masking effect (real)” value ([3]; tested substance 75 ppm) was 16.67% and the “Masking effect (real)” value ([3]; tested substance 100 ppm) was 13.33%.

For `OC[C@H]1O[C@@H]2O[C@H]3[C@H](O)[C@@H](O)[C@@H](O[C@H]4[C@H](O)[C@@H](O)[C@@H](O[C@H]5[C@H](O)[C@@H](O)[C@@H](O[C@H]6[C@H](O)[C@@H](O)[C@@H](O[C@H]7[C@H](O)[C@@H](O)[C@@H](O[C@H]8[C@H](O)[C@@H](O)[C@@H](O[C@H]9[C@H](O)[C@@H](O)[C@@H](O[C@H]1[C@H](O)[C@H]2O)O[C@@H]9CO)O[C@@H]8CO)O[C@@H]7CO)O[C@@H]6CO)O[C@@H]5CO)O[C@@H]4CO)O[C@@H]3CO` [gCD, gamma-cyclodextrin], the Relative sweetening power ([2]; 1% sucrose level) was 0.4000, the Relative sweetening power ([2]; 3% sucrose level) was 0.3529 and the Equisweet concentration [2, 5] was 25000 ppm. For the same molecule, the Equisweet concentration [2, 6] was 85000 ppm, the “Masking effect (real)” value ([4]; tested substance 5 ppm) was 1.00% and the “Masking effect (real)” value ([4]; tested substance 25 ppm) was 2.00%. The “Masking effect (real)” value ([4]; tested substance 50 ppm) was 4.00%, the “Masking effect (real)” value ([4]; tested substance 75 ppm) was 5.00% and the “Masking effect (real)” value ([4]; tested substance 100 ppm) was 6.00%.
